Reference: paper PMC5218480 (PLoS ONE, 2017)

System: MV-4-11 cells
Assay: Gene expression microarray analysis (Affymetrix PrimeView) and GSEA
Assay type: cell-based, human
Parameters: RFU PODN (11730768_x_at) / Fold change /veh PODN (11730768_x_at) / RFU LINC00158 (11744669_a_at) / Fold change /veh LINC00158 (11744669_a_at) / RFU DUSP10 (11751237_a_at) / Fold change /veh DUSP10 (11751237_a_at) / RFU ID3 (11757404_x_at) / Fold change /veh ID3 (11757404_x_at) / RFU PLEKHG5 (11737974_s_at) / Fold change /veh PLEKHG5 (11737974_s_at) / RFU LRRC4B (11730491_at) / Fold change /veh LRRC4B (11730491_at) / RFU GIMAP4 (11747438_a_at) / Fold change /veh GIMAP4 (11747438_a_at) / RFU KRT8 (11758183_x_at) / Fold change /veh KRT8 (11758183_x_at) / RFU CNN1 (11734310_a_at) / Fold change /veh CNN1 (11734310_a_at) / RFU VPS37D (11726825_at) / Fold change /veh VPS37D (11726825_at) / RFU C10orf10 (11716522_x_at) / Fold change /veh C10orf10 (11716522_x_at) / RFU KIR2DL2 /// KIR2DL4 /// KIR2DL5A /// KIR2DL5B /// KIR2DS1 /// KIR2DS2 /// KIR2DS3 /// KIR2DS4 /// KIR3DL3 /// KIR3DL3 /// KIR3DS1 (11738374_at) / Fold change /veh KIR2DL2 /// KIR2DL4 /// KIR2DL5A /// KIR2DL5B /// KIR2DS1 /// KIR2DS2 /// KIR2DS3 /// KIR2DS4 /// KIR3DL3 /// KIR3DL3 /// KIR3DS1 (11738374_at) / RFU C1QL1 (11718748_at) / Fold change /veh C1QL1 (11718748_at) / RFU TMPRSS4 (11747572_a_at) / Fold change /veh TMPRSS4 (11747572_a_at) / RFU HAMP (11756126_x_at) / Fold change /veh HAMP (11756126_x_at) / RFU RNFT2 (11725882_a_at) / Fold change /veh RNFT2 (11725882_a_at) / RFU NR4A2 (11747474_a_at) / Fold change /veh NR4A2 (11747474_a_at) / RFU ABCC12 (11746883_a_at) / Fold change /veh ABCC12 (11746883_a_at) / RFU TMEM136 (11760407_x_at) / Fold change /veh TMEM136 (11760407_x_at) / RFU CLDN22 /// WWC2 (11732394_at) / Fold change /veh CLDN22 /// WWC2 (11732394_at) / RFU HLA-DPB1 (11760878_x_at) / Fold change /veh HLA-DPB1 (11760878_x_at) / RFU SPINT1 (11716480_a_at) / Fold change /veh SPINT1 (11716480_a_at) / RFU GAP43 (11754022_s_at) / Fold change /veh GAP43 (11754022_s_at) / RFU A4GNT (11735810_at) / Fold change /veh A4GNT (11735810_at) / RFU PRB3 (11715151_x_at) / Fold change /veh PRB3 (11715151_x_at) / RFU TUBB4B (11761932_at) / Fold change /veh TUBB4B (11761932_at) / RFU CAPN14 (11732068_a_at) / Fold change /veh CAPN14 (11732068_a_at) / RFU TMCC2 (11721928_a_at) / Fold change /veh TMCC2 (11721928_a_at) / RFU IRGQ (11745062_a_at) / Fold change /veh IRGQ (11745062_a_at) / RFU FAM174B (11720279_a_at) / Fold change /veh FAM174B (11720279_a_at) / RFU TMPRSS4 (11748680_a_at) / Fold change /veh TMPRSS4 (11748680_a_at) / RFU FAM212B (11763350_a_at) / Fold change /veh FAM212B (11763350_a_at) / RFU PLEKHG5 (11743358_a_at) / Fold change /veh PLEKHG5 (11743358_a_at) / RFU ZSCAN30 (11745921_a_at) / Fold change /veh ZSCAN30 (11745921_a_at) / RFU CMKLR1 (11741424_a_at) / Fold change /veh CMKLR1 (11741424_a_at) / RFU LOC101060620 /// MAPK8IP1 (11723275_at) / Fold change /veh LOC101060620 /// MAPK8IP1 (11723275_at) / RFU SPTSSB (11747773_x_at) / Fold change /veh SPTSSB (11747773_x_at) / RFU PRSS12 (11739890_at) / Fold change /veh PRSS12 (11739890_at) / RFU BIN1 (11741810_x_at) / Fold change /veh BIN1 (11741810_x_at) / RFU WNT11 (11732464_a_at) / Fold change /veh WNT11 (11732464_a_at) / RFU C10orf10 (11716521_a_at) / Fold change /veh C10orf10 (11716521_a_at) / RFU C5orf56 (11738089_at) / Fold change /veh C5orf56 (11738089_at) / RFU CYB561 (11721691_x_at) / Fold change /veh CYB561 (11721691_x_at) / RFU ANKRD19P (11752326_a_at) / Fold change /veh ANKRD19P (11752326_a_at) / RFU OR2T12 /// OR2T33 /// OR2T8 (11738714_s_at) / Fold change /veh OR2T12 /// OR2T33 /// OR2T8 (11738714_s_at) / RFU VCAN (11748164_a_at) / Fold change /veh VCAN (11748164_a_at) / RFU JSRP1 (11732532_at) / Fold change /veh JSRP1 (11732532_at) / RFU KRTAP10-11 (11738290_x_at) / Fold change /veh KRTAP10-11 (11738290_x_at) / RFU MYO3A (11730013_a_at) / Fold change /veh MYO3A (11730013_a_at) / RFU EBF3 (11725865_a_at) / Fold change /veh EBF3 (11725865_a_at) / RFU CAMK2N1 (11719241_x_at) / Fold change /veh CAMK2N1 (11719241_x_at) / RFU C5orf56 (11738088_a_at) / Fold change /veh C5orf56 (11738088_a_at) / RFU OLFML3 (11715873_a_at) / Fold change /veh OLFML3 (11715873_a_at) / RFU LOC100653217 /// NTM (11731650_a_at) / Fold change /veh LOC100653217 /// NTM (11731650_a_at) / RFU MAPK11 (11762145_a_at) / Fold change /veh MAPK11 (11762145_a_at) / RFU FIZ1 (11724087_x_at) / Fold change /veh FIZ1 (11724087_x_at) / RFU OASL (11726364_x_at) / Fold change /veh OASL (11726364_x_at) / RFU SOX15 (11748057_x_at) / Fold change /veh SOX15 (11748057_x_at) / RFU CD79A (11719716_a_at) / Fold change /veh CD79A (11719716_a_at) / RFU HIST1H1D (11736915_at) / Fold change /veh HIST1H1D (11736915_at) / RFU CASKIN2 (11723855_a_at) / Fold change /veh CASKIN2 (11723855_a_at) / RFU LOC730098 (11760151_x_at) / Fold change /veh LOC730098 (11760151_x_at) / RFU OR4N2 (11742367_at) / Fold change /veh OR4N2 (11742367_at) / RFU PRRT2 (11749266_a_at) / Fold change /veh PRRT2 (11749266_a_at) / RFU SNX32 (11753110_a_at) / Fold change /veh SNX32 (11753110_a_at) / RFU CDHR5 (11726645_a_at) / Fold change /veh CDHR5 (11726645_a_at) / RFU RCAN1 (11760418_a_at) / Fold change /veh RCAN1 (11760418_a_at) / RFU FAM167A (11723789_a_at) / Fold change /veh FAM167A (11723789_a_at) / RFU FAM26E (11764081_at) / Fold change /veh FAM26E (11764081_at) / RFU ISYNA1 (11749810_s_at) / Fold change /veh ISYNA1 (11749810_s_at) / RFU ACY1 (11761880_at) / Fold change /veh ACY1 (11761880_at) / RFU 11764098_at / Fold change /veh 11764098_at / RFU SAMD14 (11745864_x_at) / Fold change /veh SAMD14 (11745864_x_at) / RFU NPB (11741838_a_at) / Fold change /veh NPB (11741838_a_at) / RFU TMPRSS6 (11731388_a_at) / Fold change /veh TMPRSS6 (11731388_a_at) / RFU KRTAP10-2 (11738614_at) / Fold change /veh KRTAP10-2 (11738614_at) / RFU ARHGAP8 /// PRR5-ARHGAP8 (11727945_x_at) / Fold change /veh ARHGAP8 /// PRR5-ARHGAP8 (11727945_x_at) / RFU KRTAP5-7 /// NADSYN1 (11734609_at) / Fold change /veh KRTAP5-7 /// NADSYN1 (11734609_at) / RFU RASL12 (11751679_a_at) / Fold change /veh RASL12 (11751679_a_at) / RFU CDKN2B (11736163_a_at) / Fold change /veh CDKN2B (11736163_a_at) / RFU PRF1 (11729649_at) / Fold change /veh PRF1 (11729649_at) / RFU, ZNF638 /// ZNF638-IT1 / Fold change vs veh, ZNF638 /// ZNF638-IT1 / RFU, PANK3 / Fold change vs veh, PANK3 / RFU, SH3YL1 / Fold change vs veh, SH3YL1 / RFU, ZEB2 / Fold change vs veh, ZEB2 / RFU, NRIP1 / Fold change vs veh, NRIP1 / RFU, PTTG1IP / Fold change vs veh, PTTG1IP / RFU, CAPN2 / Fold change vs veh, CAPN2 / RFU, MED14 / Fold change vs veh, MED14 / RFU, SNORA58 / Fold change vs veh, SNORA58 / RFU, C1orf63 / Fold change vs veh, C1orf63 / RFU, LRRFIP1 / Fold change vs veh, LRRFIP1 / RFU, NDUFAF7 / Fold change vs veh, NDUFAF7 / RFU, SLC12A2 / Fold change vs veh, SLC12A2 / RFU, IBTK / Fold change vs veh, IBTK / RFU, ESF1 / Fold change vs veh, ESF1 / Fold change vs veh, TMEM50B / RFU, TAOK1 / Fold change vs veh, TAOK1 / RFU, ACBD3 / Fold change vs veh, ACBD3 / RFU, TMA16 / Fold change vs veh, TMA16 / RFU, RWDD3 / Fold change vs veh, RWDD3 / RFU, BCAT1 / Fold change vs veh, BCAT1 / RFU, EDEM3 / Fold change vs veh, EDEM3 / RFU, TMEM33 / Fold change vs veh, TMEM33 / RFU, WDR75 / Fold change vs veh, WDR75 / RFU, AHCTF1 / Fold change vs veh, AHCTF1 / RFU, TFRC / Fold change vs veh, TFRC / RFU, ZDHHC17 / Fold change vs veh, ZDHHC17 / RFU, NOM1 / Fold change vs veh, NOM1 / RFU, ARL8B / Fold change vs veh, ARL8B / RFU, ZBTB11 / Fold change vs veh, ZBTB11 / RFU, TAMM41 / Fold change vs veh, TAMM41 / RFU, KIAA1704 /// LOC100996395 / Fold change vs veh, KIAA1704 /// LOC100996395 / RFU, ING1 / Fold change vs veh, ING1 / RFU, TRMT61B / Fold change vs veh, TRMT61B / RFU, FUBP3 / Fold change vs veh, FUBP3 / RFU, TP53 / Fold change vs veh, TP53 / RFU, TNKS2 / Fold change vs veh, TNKS2 / RFU, ZFP14 / Fold change vs veh, ZFP14 / RFU, ACTR2 / Fold change vs veh, ACTR2 / RFU, PPP3R1 / Fold change vs veh, PPP3R1 / RFU, PIK3R1 / Fold change vs veh, PIK3R1 / RFU, HNRNPA1 / Fold change vs veh, HNRNPA1 / RFU, RNF170 / Fold change vs veh, RNF170 / RFU, ZNF28 / Fold change vs veh, ZNF28 / RFU, RNGTT / Fold change vs veh, RNGTT / RFU, OGT / Fold change vs veh, OGT / RFU, BRD1 / Fold change vs veh, BRD1 / RFU, MARS / Fold change vs veh, MARS / RFU, ZNF655 / Fold change vs veh, ZNF655 / RFU, FAHD1 / Fold change vs veh, FAHD1 / RFU, BDP1 / Fold change vs veh, BDP1 / RFU, LRRCC1 / Fold change vs veh, LRRCC1 / RFU, ARID1A / Fold change vs veh, ARID1A / RFU, ZNF146 / Fold change vs veh, ZNF146 / RFU, ZNF330 / Fold change vs veh, ZNF330 / RFU, GPN3 / Fold change vs veh, GPN3 / RFU, C9orf123 / Fold change vs veh, C9orf123 / RFU, N4BP2L2 / Fold change vs veh, N4BP2L2 / RFU, ARFIP1 / Fold change vs veh, ARFIP1 / RFU, FAM179B / Fold change vs veh, FAM179B / RFU, BCL10 / Fold change vs veh, BCL10 / RFU, UHRF1BP1L / Fold change vs veh, UHRF1BP1L / RFU, BET1 / Fold change vs veh, BET1 / RFU, CNOT2 / Fold change vs veh, CNOT2 / RFU, ZNF268 / Fold change vs veh, ZNF268 / Fold change vs veh, ZNF507 / RFU, DGCR2 / Fold change vs veh, DGCR2 / RFU, WDSUB1 / Fold change vs veh, WDSUB1 / Fold change vs veh, HSP90B1 /// MIR3652 / RFU, ADSS / Fold change vs veh, ADSS / RFU, GK / Fold change vs veh, GK / RFU, ZNF148 / Fold change vs veh, ZNF148 / RFU, TAF9 / Fold change vs veh, TAF9 / RFU, SLC1A5 / Fold change vs veh, SLC1A5 / RFU, SLMO2 / Fold change vs veh, SLMO2 / RFU, ABCC4 / Fold change vs veh, ABCC4 / RFU, LOC101060439 /// RAP1B / Fold change vs veh, LOC101060439 /// RAP1B / RFU, RFX7 / Fold change vs veh, RFX7 / RFU, GTPBP10 / Fold change vs veh, GTPBP10 / RFU, CNEP1R1 / Fold change vs veh, CNEP1R1 / RFU, BIVM-ERCC5 /// ERCC5 / Fold change vs veh, BIVM-ERCC5 /// ERCC5 / RFU, ILF3 / Fold change vs veh, ILF3 / RFU 11762660_at / Fold change /veh 11762660_at / RFU VCAN (11757783_s_at) / Fold change /veh VCAN (11757783_s_at) / RFU DDX43 (11728927_at) / Fold change /veh DDX43 (11728927_at) / RFU KRT8 (11758188_x_at) / Fold change /veh KRT8 (11758188_x_at) / RFU NKD1 (11759106_at) / Fold change /veh NKD1 (11759106_at) / RFU SRD5A1 (11742802_a_at) / Fold change /veh SRD5A1 (11742802_a_at) / RFU TPSAB1 /// TPSB2 (11721975_s_at) / Fold change /veh TPSAB1 /// TPSB2 (11721975_s_at) / RFU GSTM3 (11746129_a_at) / Fold change /veh GSTM3 (11746129_a_at) / RFU IL23R (11737362_x_at) / Fold change /veh IL23R (11737362_x_at) / RFU TMEM51 (11727254_a_at) / Fold change /veh TMEM51 (11727254_a_at) / RFU PIWIL2 (11732686_x_at) / Fold change /veh PIWIL2 (11732686_x_at) / RFU ORM1 (11744905_x_at) / Fold change /veh ORM1 (11744905_x_at) / RFU CCDC152 (11743942_at) / Fold change /veh CCDC152 (11743942_at) / RFU ECM1 (11717891_a_at) / Fold change /veh ECM1 (11717891_a_at) / RFU IL23R (11748794_a_at) / Fold change /veh IL23R (11748794_a_at) / RFU TNFAIP8L3 (11732012_x_at) / Fold change /veh TNFAIP8L3 (11732012_x_at) / RFU MBOAT4 (11741988_at) / Fold change /veh MBOAT4 (11741988_at) / RFU 11764193_at / Fold change /veh 11764193_at / RFU TMEM53 (11763286_at) / Fold change /veh TMEM53 (11763286_at) / RFU MAGEB2 (11727129_at) / Fold change /veh MAGEB2 (11727129_at) / RFU TMEM200A (11744735_a_at) / Fold change /veh TMEM200A (11744735_a_at) / RFU CCDC152 (11751479_a_at) / Fold change /veh CCDC152 (11751479_a_at) / RFU FAM211A (11726209_a_at) / Fold change /veh FAM211A (11726209_a_at) / RFU RGS16 (11746705_a_at) / Fold change /veh RGS16 (11746705_a_at) / RFU VCAN (11755009_s_at) / Fold change /veh VCAN (11755009_s_at) / RFU RHOB (11743442_s_at) / Fold change /veh RHOB (11743442_s_at) / RFU RGS16 (11720943_a_at) / Fold change /veh RGS16 (11720943_a_at) / RFU RGS16 (11720944_at) / Fold change /veh RGS16 (11720944_at) / RFU, VPS4B / Fold change vs veh, VPS4B / RFU, CREB1 / Fold change vs veh, CREB1 / RFU, DNAJC13 / Fold change vs veh, DNAJC13 / RFU, GNAQ / Fold change vs veh, GNAQ / RFU, CDK5R1 / Fold change vs veh, CDK5R1 / RFU, ZRANB3 / Fold change vs veh, ZRANB3 / RFU, CUL4A / Fold change vs veh, CUL4A / RFU, CCNY / Fold change vs veh, CCNY / RFU, UFL1 / Fold change vs veh, UFL1 / RFU, COG3 / Fold change vs veh, COG3 / RFU, DIAPH2 / Fold change vs veh, DIAPH2 / RFU, SKA2 / Fold change vs veh, SKA2 / RFU, AFF3 / Fold change vs veh, AFF3 / RFU, LMF1 / Fold change vs veh, LMF1 / RFU, IPO11 / Fold change vs veh, IPO11 / RFU, DFFB / Fold change vs veh, DFFB / RFU, FOXP1 / Fold change vs veh, FOXP1 / RFU, CARD8 / Fold change vs veh, CARD8 / RFU, STRN3 / Fold change vs veh, STRN3 / RFU, ADK / Fold change vs veh, ADK / RFU, RASSF2 / Fold change vs veh, RASSF2 / RFU, WIPF1 / Fold change vs veh, WIPF1 / RFU, LARP1B / Fold change vs veh, LARP1B / RFU, RASA1 / Fold change vs veh, RASA1 / RFU, RB1 / Fold change vs veh, RB1 / RFU, PPFIA1 / Fold change vs veh, PPFIA1 / RFU, MAT2A / Fold change vs veh, MAT2A / RFU, CCT5 / Fold change vs veh, CCT5 / RFU, WDR92 / Fold change vs veh, WDR92 / RFU, CUX1 / Fold change vs veh, CUX1 / RFU, TTC7A / Fold change vs veh, TTC7A / RFU, TMEM135 / Fold change vs veh, TMEM135 / RFU, DEPTOR / Fold change vs veh, DEPTOR / RFU, CPM / Fold change vs veh, CPM / RFU, DNAJB6 / Fold change vs veh, DNAJB6 / RFU, CACNA2D3 / Fold change vs veh, CACNA2D3 / RFU, DTX4 / Fold change vs veh, DTX4 / RFU, TFCP2 / Fold change vs veh, TFCP2 / RFU, GMCL1 /// GMCL1P1 / Fold change vs veh, GMCL1 /// GMCL1P1 / RFU, AEBP2 / Fold change vs veh, AEBP2 / RFU, SNHG1 /// SNORD22 /// SNORD25 /// SNORD26 /// SNORD27 /// SNORD28 /// SNORD29 /// SNORD31 / Fold change vs veh, SNHG1 /// SNORD22 /// SNORD25 /// SNORD26 /// SNORD27 /// SNORD28 /// SNORD29 /// SNORD31 / Fold change (Aza/veh), C12orf56 (ProbeSet 11735607_a_at) / Fold change (ACY-1035/veh), C12orf56 (ProbeSet 11735607_a_at) / Fold change (Aza/veh), FGFR1OP (ProbeSet 11751329_s_at) / Fold change (ACY-1035/veh), FGFR1OP (ProbeSet 11751329_s_at) / Fold change (Aza/veh), VPS36 (ProbeSet 11739960_a_at) / Fold change (ACY-1035/veh), VPS36 (ProbeSet 11739960_a_at) / RFU SYPL1 (11715823_x_at) / Fold change /veh SYPL1 (11715823_x_at) / RFU IGFBP7 (11715501_s_at) / Fold change /veh IGFBP7 (11715501_s_at) / RFU REEP3 (11722064_at) / Fold change /veh REEP3 (11722064_at) / RFU IGLL1 (11728026_x_at) / Fold change /veh IGLL1 (11728026_x_at): dose or concentration left out as unconfirmed
Settings: ProbeSet 11739106_a_at; LIST B

For `Nc1ccc(-c2cccs2)cc1NC(=O)c1ccc2c(c1)cc(C1CC1)n2CCN1CCOCC1` [ACY-1035], the “Fold change vs veh, TMEM33” value was 0.87.
